Test results as given in patent publication US11660351B2, “Antibody drug conjugates (ADCs) having enzymatically cleavable groups” (Bayer Pharma Aktiengesellschaft, priority 2016, dated 2023).

Columns and labels:
SK-HEP-1 = experiment: Cytotoxic effect, MTT assay, SK-HEP-1 cells; format: cell-based; details: Homo sapiens, SK-HEP1; Table 2, metabolites
NCI-H292 = experiment: Cytotoxic effect, MTT assay, NCI-H292 cells; format: cell-based; details: Homo sapiens, Table 2, metabolites
Caco-2 cells = experiment: Caco-2 flux assay for cell permeability; format: in vitro ADME; details: Caco-2, 2 h incubation
Procedure: The cell permeability of a substance can be investigated by means of in vitro testing in a flux assay using Caco-2 cells [M. D. Troutman and D. R. Thakker, Pharm. […] For this purpose, the cells were cultured for 15-16 days on 24-well filter plates. For the determination of permeation, the respective test substance was applied in a HEPES buffer to the cells either apically (A) or basally (B) and incubated for 2 hours. After 0 hours and after 2 hours, samples were taken from the cis and trans compartments. The samples were separated by HPLC (Agilent 1200, Böblingen, Germany) using reverse phase columns. The HPLC system was coupled via a Turbo Ion Spray Interface to a Triple Quadropole mass spectrometer API 4000 (AB SCIEX Deutschland GmbH, Darmstadt, Germany).

legumain = target: T1, legumain (Homo sapiens, UniProt Q99538); experiment: Legumain assay (enzymatic cleavage); format: biochemical; details: recombinant human legumain, rhLegumain 1 ng/μl, substrate 3 μM, pH 5.0, read-out: half-life of legumain-mediated cleavage to the target compound (converted)
T1 construct: purchased R&D Systems 2199-CY
T1 sequence (Q99538 18-323 limits assumed): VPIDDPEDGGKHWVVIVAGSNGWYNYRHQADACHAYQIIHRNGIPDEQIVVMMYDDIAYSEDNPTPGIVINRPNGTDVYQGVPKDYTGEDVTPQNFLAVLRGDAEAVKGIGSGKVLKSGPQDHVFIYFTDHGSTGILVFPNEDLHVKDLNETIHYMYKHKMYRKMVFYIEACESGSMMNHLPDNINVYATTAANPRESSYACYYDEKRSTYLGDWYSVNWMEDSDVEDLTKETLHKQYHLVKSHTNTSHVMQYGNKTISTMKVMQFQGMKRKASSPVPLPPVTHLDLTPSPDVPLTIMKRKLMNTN
Procedure: The legumain assay was conducted with recombinant human enzyme. The rhlegumain enzyme solution (catalogue #2199-CY, R&D Systems) was diluted in 50 mM Na acetate buffer/100 mM NaCl, pH 4.0 to the desired concentration and preincubated at 37° C. for 2 h. rhLegumain was then adjusted to a final concentration of 1 ng/μl in 50 mM MES buffer, 250 mM NaCl, pH 5.0. For every legumain-cleavable prodrug to be examined, a mixture was made up in a micro reaction vessel (0.5 ml, from Eppendorf). For this purpose, the substrate solution was adjusted to the desired concentration (double concentration) with 50 mM MES buffer, 250 mM NaCl, pH 5.0. For the kinetic measurement of the enzymatic reaction, 250 μl of the legumain solution were first initially charged and the enzyme reaction was started by adding 250 μl of the substrate solution (final concentration: single concentration; 3 μM). At various points in time, 50 μl samples were taken. Immediately, 100 μl of ice-cold methanol were added to this sample in order to stop the enzymatic reaction, and the sample was then frozen at −20° C. The times selected for sampling were after 0.5 h, 1 h, 3 h and 24 h. The samples were then analysed by means of RP-HPLC analysis and by LC-MS analysis. The determination of the toxophore released enabled the determination of the half-life t1/2 of the enzymatic reaction. […]

MOLM-13 = experiment: Cytotoxic effect, MTT assay, MOLM-13 cells; format: cell-based; details: Homo sapiens, Table 2, metabolites
Procedure: (§1) After 48 h, the medium was replaced. […] The suspension cells were counted and sown into a 96-well culture plate with white bottom (from Costar #3610) (#3610) (MOLM-13: 2000 cells/well; NB4: 7000 cells/well; MV-4-11: 5000 cells/well in a total volume of 100 μl). After 6 hours of incubation at 37° C. and 5% carbon dioxide, the medium was changed and the antibody-drug conjugates or metabolites were added by pipette in 10 μl of culture medium in concentrations of 10^−5M to 10^−13M to the cells (triplicates) in 90 μl. […] After 96 h, the cell proliferation was detected using the MTT assay (ATCC, Manassas, Va., USA, catalogue No. 30-1010K). To this end, the MTT reagent was incubated with the cells for 4 h, followed by lysis of the cells overnight by addition of the detergent. The dye formed was detected at 570 nm (Infinite M1000 pro, Tecan). The measured data were used to calculate the IC50 of the growth inhibition using the DRC (dose response curve). The proliferation of cells which were not treated with test substance but were otherwise identically treated was defined as the 100% figure.

KPL-4 = experiment: Cytotoxic effect, MTT assay, KPL-4 cells; format: cell-based; details: Homo sapiens, KPL4; Table 2, metabolites
Procedure: as §1, with “μl).” for “μl). After 6 hours of incubation at 37° C. and 5% carbon dioxide, the medium was changed and the antibody-drug conjugates or metabolites were added by pipette in 10 μl of culture medium in concentrations of 10^−5M to 10^−13M to the cells (triplicates) in 90 μl.”

Row | Structure (SMILES) | IC50 (SK-HEP-1) [nM] | IC50 (NCI-H292) [nM] | Papp (B-A) (Caco-2 cells) [nm/s] | half-life at 3 μM (legumain) [min] | IC50 (MOLM-13) [nM] | IC50 (KPL-4) [nM]
1 | CC(C)(C)[C@H](c1cc(-c2cc(F)ccc2F)cn1Cc1ccccc1)N(CC[C@H](N)C(=O)NCCC(=O)N[C@H](CCC(=O)O)C(=O)O)C(=O)CO [Example M1, N-{(2S)-2-Amino-4-[{(1R)-1-[1-benzyl-4-(2,5-difluorophenyl)-1H-pyrrol-2-yl]-2,2-dimethylpropyl}(glycoloyl)amino]butanoyl}-beta-alanyl-D-glutamic acid] | 19.6 | 174 | 2.7 |  |  | 
2 | CNC(=O)[C@H](CCN(C(=O)CO)[C@@H](c1cc(-c2cc(F)ccc2F)cn1Cc1ccccc1)C(C)(C)C)NC(=O)[C@H](CC(N)=O)NC(=O)[C@H](C)NC(=O)[C@H](C)NC(=O)Cc1ccncc1 [Model compound A, N-(Pyridin-4-ylacetyl)-L-alanyl-L-alanyl-N^1-[(2S)-4-[{(1R)-1-[1-benzyl-4-(2,5-difluorophenyl)-1H-pyrrol-2-yl]-2,2-dimethylpropyl}(glycoloyl)amino]-1-(methylamino)-1-oxobutan-2-yl]-L-aspartamide] |  |  |  | 24 |  | 
3 | CC(C)(C)[C@H](c1cc(-c2cc(F)ccc2F)cn1Cc1ccccc1)N(CCCN)C(=O)CO [Reference Example R3M, N-(3-Aminopropyl)-N-{(1R)-1-[1-benzyl-4-(2,5-difluorophenyl)-1H-pyrrol-2-yl]-2,2-dimethylpropyl}-2-hydroxyacetamide] | 7.62 | 0.27 |  |  | 0.0669 | 0.257
